Measured values published in a compilation of properties of binary mixtures (doi:10.1016/j.molliq.2014.10.017).

Assay: xn = mol fraction of the nth substance listed
Settings: 101 kPa

CCOS(=O)(=O)[O-].CC[n+]1ccn(C)c1 + CC#N
speed of sound [m/s]
Settings | 293.15 K | 298.15 K | 303.15 K | 308.15 K | 313.15 K
x2 = 0 | 1693.1 | 1680.8 | 1668.5 | – | 1644.4
x2 = 0.0934 | – | 1670.3 | – | – | 1633.5
x2 = 0.1936 | 1667 | 1654.5 | 1641.9 | 1629.3 | 1616.8
x2 = 0.2906 | 1649.5 | 1639.7 | 1623.8 | 1610.9 | 1598.1
x2 = 0.397 | 1626.4 | 1613.3 | 1599.9 | 1586.6 | 1573.5
x2 = 0.4967 | 1592.4 | 1578.7 | 1564.7 | 1550.8 | 1537
x2 = 0.5938 | – | 1552.3 | – | 1523.5 | –
x2 = 0.7001 | – | – | – | 1474.1 | 1458.9
x2 = 0.7953 | 1464.6 | 1448.5 | 1432.3 | 1416 | 1399.8
x2 = 0.8951 | – | 1373.4 | – | 1337.9 | 1320.2
x2 = 0.9516 | 1343.4 | 1324.8 | – | 1287.1 | 1268.3

CC#N + CCOS(=O)(=O)[O-].CC[n+]1ccn(C)c1
x1 = 1
Settings | speed of sound [m/s]
293.15 K | 1298.8
298.15 K | 1279
303.15 K | 1258.8
308.15 K | 1238.6
313.15 K | 1218.5

CC#N + CCCC[n+]1ccn(C)c1.N#C[S-]
x1 = 1
Settings | speed of sound [m/s]
303.15 K | 1258.8
313.15 K | 1218.5

CCCC[n+]1ccn(C)c1.N#C[S-] + CC#N
speed of sound [m/s]
Settings | 293.15 K | 298.15 K | 303.15 K | 308.15 K | 313.15 K
x2 = 0 | 1778.8 | 1767.2 | 1755.4 | 1743.7 | 1732.1
x2 = 0.0984 | 1764.8 | 1752.9 | 1740.8 | 1728.9 | 1717
x2 = 0.1936 | 1749.3 | – | 1724.7 | 1712.5 | 1700.3
x2 = 0.3061 | – | 1714.1 | 1701.4 | 1688.7 | 1676.1
x2 = 0.4068 | 1701.6 | 1688.5 | 1675.3 | 1662.1 | 1649
x2 = 0.4899 | – | 1662.5 | 1648.8 | 1635.2 | 1621.7
x2 = 0.5994 | 1633.3 | 1618.7 | 1604.2 | 1589.7 | 1575.4
x2 = 0.6925 | 1586.2 | 1571.2 | – | 1540.8 | 1525.7
x2 = 0.7988 | – | 1498.6 | – | 1465.7 | 1449.4
x2 = 0.8971 | 1426.5 | 1408.9 | 1391 | 1373.1 | 1355.2
x2 = 0.9465 | 1372.3 | 1353.6 | 1334.8 | 1316 | 1297.2
